Legend:
quackgrass = test: Test F preemergence test; format: in vivo, Elytrigia repens; settings: scale 0 to 100
How it was run: (§1)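 Preemergence application to planted seeds, or postemergence to sugarcane plants; compound in non-phytotoxic solvent mix plus surfactant. Greenhouse, 14-21 days. Visual rating vs. controls.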

Surinam grass = test: Test F preemergence test; format: in vivo, Brachiaria decumbens; settings: scale 0 to 100
How it was run: as §1

common ragweed = test: Test F preemergence test; format: in vivo, Ambrosia elation; settings: scale 0 to 100
Excerpt: Seeds of plant species selected from bermudagrass (Cynodon dactylon), Surinam grass (Brachiaria decumbens), large crabgrass (Digitaria sanguinalis), green foxtail (Setaria viridis), goosegrass (Eleusine indica), johnsongrass (Sorghum halepense), kochia (Kochia scoparia), pitted morningglory (Ipomoea lacunosa), purple nutsedge (Cyperus rotundus), common ragweed (Ambrosia elation), mustard (Brassica nigra), guineagrass (Panicum maximum), […] (Paspalum dilatatum), barnyardgrass (Echinochloa crus-galli), southern sandbur (Cenchrus echinatus), common sowthistle (Sonchus oleraceous), prickly […] spinosa), Italian ryegrass (Lolium multiflorum), common purslane (Portulaca oleracea), broadleaf signalgrass (Brachiaria platyphylla), common groundsel (Senecio vulgaris), common chickweed (Stellaria media), Virginia dayflower (Commelina virginica), annual bluegrass (Poa annua), naked crabgrass (Digitaria nuda), […] cochinchinensis), quackgrass (Elytrigia repens), Canada horseweed (Conyza canadensis), field bindweed (Convolvulus arvensis), […] (Bidens bipinnata), common mallow (Malva sylvestris), Russian thistle (Salsola kali), and sugarcane (Saccharum officinarum) were planted and treated preemergence with test chemicals formulated in a non-phytotoxic solvent mixture which included a surfactant. At a different time, sugarcane was treated with postemergence applications of some of the test chemicals formulated in the same manner. Plants were approximately 3- to 4-leaf stage for the postemergence treatments. Treated plants and controls were maintained in a greenhouse for 14 to 21 days, after which time all species were compared to controls and visually evaluated. […] A dash (-) response means no test result.

mustard = test: Test F preemergence test; format: in vivo, Brassica nigra; settings: scale 0 to 100
How it was run: as §1

large crabgrass = test: Test F preemergence test; format: in vivo, Digitaria sanguinalis; settings: scale 0 to 100
How it was run: as §1

bermudagrass = test: Test F preemergence test; format: in vivo, Cynodon dactylon; settings: scale 0 to 100
How it was run: as §1

kochia = test: Test F preemergence test; format: in vivo, Kochia scoparia; settings: scale 0 to 100
How it was run: as §1

southern sandbur = test: Test F preemergence test; format: in vivo, Cenchrus echinatus; settings: scale 0 to 100
How it was run: as §1

purple nutsedge = test: Test F preemergence test; format: in vivo, Cyperus rotundus; settings: scale 0 to 100
How it was run: as §1

goosegrass = test: Test F preemergence test; format: in vivo, Eleusine indica; settings: scale 0 to 100
How it was run: as §1

corn = test: Test C pre-/postemergence test; format: in vivo, Zea mays
How it was run: (§2)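 Test chemicals were formulated with surfactant in a non-phytotoxic solvent and sprayed both on freshly planted seeds (preemergence) and on 1- to 4-leaf plants of 2–18 cm (postemergence). Flooded-paddy pots received compound directly into 3 cm of standing water, maintained for the test.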

blackgrass = test: Test C pre-/postemergence test; format: in vivo, Alopecurus myosuroides
How it was run: as §2

barnyardgrass = test: Test F preemergence test; format: in vivo, Echinochloa crus-galli; settings: scale 0 to 100
How it was run: as §1

Italian ryegrass = test: Test F preemergence test; format: in vivo, Lolium multiflorum; settings: scale 0 to 100
How it was run: as §1

woolly cupgrass = test: Test C pre-/postemergence test; format: in vivo, Eriochloa villosa; settings: Preemergence
How it was run: as §2

broadleaf signalgrass = test: Test F preemergence test; format: in vivo, Brachiaria platyphylla; settings: scale 0 to 100
How it was run: as §1

[1] = 62 g ai/ha, Preemergence, scale 0 to 100
[2] = Preemergence, 31 g ai/ha, scale 0 to 100 (0 no effect, 100 complete control)
[3] = preemergence, 125 g ai/ha, scale 0 (no effect) to 100 (complete control)

Cc1cc[n+]([O-])c([S+]([O-])Cc2c(C(F)(F)F)nn(C)c2OCC(F)(F)F)c1 (racemic) [Compound 30]
Quackgrass plant response rating (quackgrass; 62 g ai/ha, Preemergence): 70
Quackgrass plant response rating (quackgrass; 125 g ai/ha, preemergence): 75
Plant response rating, Quackgrass (quackgrass; Preemergence, 16 g ai/ha): 15
Plant response rating, Quackgrass (quackgrass; Preemergence, 31 g ai/ha): 40
Surinam Grass plant response rating (Surinam grass; 62 g ai/ha, Preemergence): 80
Surinam Grass plant response rating (Surinam grass; 125 g ai/ha, preemergence): 100
Plant response rating, Surinam Grass (Surinam grass; Preemergence, 31 g ai/ha): 75
Ragweed plant response rating (common ragweed; 62 g ai/ha, Preemergence): 80
Ragweed plant response rating (common ragweed; 125 g ai/ha, preemergence): 95
Plant response rating, Ragweed (common ragweed; Preemergence, 16 g ai/ha): 50
Plant response rating, Ragweed (common ragweed; Preemergence, 31 g ai/ha): 60
Black Mustard plant response rating (mustard; 62 g ai/ha, Preemergence): 100
Black Mustard plant response rating (mustard; 125 g ai/ha, preemergence): 100
Plant response rating, Black Mustard (mustard; Preemergence, 16 g ai/ha): 70
Plant response rating, Black Mustard (mustard; Preemergence, 31 g ai/ha): 90
Crabgrass, Large plant response rating (large crabgrass; 62 g ai/ha, Preemergence): 100
Crabgrass, Large plant response rating (large crabgrass; 125 g ai/ha, preemergence): 100
Plant response rating, Crabgrass, Large (large crabgrass; Preemergence, 16 g ai/ha): 40
Plant response rating, Crabgrass, Large (large crabgrass; Preemergence, 31 g ai/ha): 50
Bermudagrass plant response rating (bermudagrass; 62 g ai/ha, Preemergence): 98
Bermudagrass plant response rating (bermudagrass; 125 g ai/ha, preemergence): 100
Plant response rating, Bermudagrass (bermudagrass; Preemergence, 16 g ai/ha): 40
Plant response rating, Bermudagrass (bermudagrass; Preemergence, 31 g ai/ha): 80
Kochia plant response rating (kochia; 62 g ai/ha, Preemergence): 95
Kochia plant response rating (kochia; 125 g ai/ha, preemergence): 95
Plant response rating, Kochia (kochia; Preemergence, 16 g ai/ha): 90
Plant response rating, Kochia (kochia; Preemergence, 31 g ai/ha): 90
Sandbur plant response rating (southern sandbur; 62 g ai/ha, Preemergence): 100
Sandbur plant response rating (southern sandbur; 125 g ai/ha, preemergence): 100
Plant response rating, Sandbur (southern sandbur; Preemergence, 31 g ai/ha): 50
Purple Nutsedge plant response rating (purple nutsedge; 62 g ai/ha, Preemergence): 70
Purple Nutsedge plant response rating (purple nutsedge; 125 g ai/ha, preemergence): 90
Plant response rating, Purple Nutsedge (purple nutsedge; Preemergence, 16 g ai/ha): 0
Plant response rating, Purple Nutsedge (purple nutsedge; Preemergence, 31 g ai/ha): 40
Goosegrass plant response rating (goosegrass; 62 g ai/ha, Preemergence): 90
Goosegrass plant response rating (goosegrass; 125 g ai/ha, preemergence): 98
Plant response rating, Goosegrass (goosegrass; Preemergence, 16 g ai/ha): 40
Plant response rating, Goosegrass (goosegrass; Preemergence, 31 g ai/ha): 75
Corn plant response rating (corn; [1]): 40
Plant response rating, Corn (corn; [2]): 5
Plant response rating (0 to 100), Corn (corn; Preemergence, 250 g ai/ha): 98
Corn plant response rating (corn; [3]): 85
Blackgrass plant response rating (blackgrass; [1]): 100
Plant response rating, Blackgrass (blackgrass; [2]): 80
Plant response rating (0 to 100), Blackgrass (blackgrass; Preemergence, 250 g ai/ha): 100
Blackgrass plant response rating (blackgrass; [3]): 100
Barnyardgrass plant response rating (barnyardgrass; 62 g ai/ha, Preemergence): 95
Barnyardgrass plant response rating (barnyardgrass; 125 g ai/ha, preemergence): 100
Plant response rating, Barnyardgrass (barnyardgrass; Preemergence, 16 g ai/ha): 20
Plant response rating, Barnyardgrass (barnyardgrass; Preemergence, 31 g ai/ha): 75
Ryegrass, Italian plant response rating (Italian ryegrass; 62 g ai/ha, Preemergence): 80
Ryegrass, Italian plant response rating (Italian ryegrass; 125 g ai/ha, preemergence): 95
Plant response rating, Ryegrass, Italian (Italian ryegrass; Preemergence, 16 g ai/ha): 60
Plant response rating, Ryegrass, Italian (Italian ryegrass; Preemergence, 31 g ai/ha): 70
Cupgrass, Woolly plant response rating (woolly cupgrass; 62 g ai/ha, scale 0 to 100): 100
Plant response rating, Cupgrass, Woolly (woolly cupgrass; 31 g ai/ha, scale 0 to 100 (0 no effect, 100 complete control)): 50
Plant response rating (0 to 100), Cupgrass, Woolly (woolly cupgrass; 250 g ai/ha): 100
Signalgrass plant response rating (broadleaf signalgrass; 62 g ai/ha, Preemergence): 70
Signalgrass plant response rating (broadleaf signalgrass; 125 g ai/ha, preemergence): 90
Plant response rating, Signalgrass (broadleaf signalgrass; Preemergence, 31 g ai/ha): 65
